Values quoted from earlier work as cited in US20060141037A1, “Bilayer tablets of oxcarbazepine for controlled delivery and a process of preparation thereof” (J. B. Chemicals & Pharmaceuticals Ltd., priority 2004, published 2006).

Columns and labels:
[1] = test system: voltage-sensitive sodium channels; details: in vitro electrophysiological studies
animal models = details: comparable to that of carbamazepine and phenytoin

solubility in water | Compound | effect on voltage-sensitive sodium channels [1] | antiepileptic activity in animal models (animal models)
practically insoluble in water | NC(=O)N1c2ccccc2CC(=O)c2ccccc21 [Oxcarbazepine, 10,11-dihydro-10-oxo-5H-dibenz[b,f]azepine-5-carboxamide] | blockade of voltage-sensitive sodium channels | potent antiepileptic activity
– | NC(=O)N1c2ccccc2CC(O)c2ccccc21 (centres unmarked) [MHD, 10,11-dihydro-10-hydro-carbamazepine] | blockade of voltage-sensitive sodium channels | potent antiepileptic activity
